Values joined by “and” are separate entries in the source; they are usually repeats but may differ in a detail not shown here. Equal entries are not always repeated. Toxic doses and inconclusive results are not listed.
Tested on: BDF1 mice, P388 leukemia ip, median survival T/C
Assay: NCI In Vivo Anticancer Drug Screen. Data for tumor model P388 Leukemia (intraperitoneal) in B6D2F1 (BDF1) mice
Details: endpoint: median survival time, higher = longer survival
Method in brief: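 Compound-treated tumour-bearing mice were compared with vehicle-treated controls. Survival was recorded, and the value is the treated-group measurement divided by the control-group measurement (T/C).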

[1] = dose: 50.0 mg/kg/injection, schedule: Q01DX009 (ip), vehicle: saline
[2] = dose: 50.0 mg/kg/injection, schedule: Q01DX009 (ip), vehicle: saline with Tween-80
[3] = dose: 100.0 mg/kg/injection, schedule: Q01DX009 (ip), vehicle: saline with Tween-80
[4] = dose: 100.0 mg/kg/injection, schedule: Q04DX003 (ip), vehicle: Klucel (hydroxypropylcellulose) (HPC)
[5] = dose: 200.0 mg/kg/injection, schedule: Q04DX003 (ip), vehicle: Klucel (hydroxypropylcellulose) (HPC)

**Q.** Which results are given for `CC12CCOC(=O)/C=C/C=C/C(=O)OC3CC4OC5C6OC6(C)CCC5(COC(=O)C1O2)C3(C)C41CO1` (stereo not drawn)?
**A.** T/C (dose: 2.5 mg/kg/injection, schedule: Q01DX009 (ip), vehicle: saline + alcohol): 154 % of control; T/C (dose: 10.0 mg/kg/injection, schedule: Q01DX009 (ip), vehicle: saline + alcohol): 157 % of control

**Q.** With `N=C(N)c1ccc(N=C(N)Nc2ccc(C(=N)N)cc2)cc1` as the compound, how does the T/C [1] read?
**A.** 118 % of control

**Q.** Which results are given for `CCOC1(OCC)OC(c2ccccc2)=C(C#N)C(/C=C\c2ccccc2)C1(OCC)OCC` (stereo not drawn)?
**A.** T/C [2]: 92 % of control; T/C [3]: 92 % of control; T/C (dose: 200.0 mg/kg/injection, schedule: Q01DX009 (ip), vehicle: saline with Tween-80): 90 % of control

**Q.** For `CCOC(=O)c1c(N)[nH]c(SSc2[nH]c(N)c(C(=O)OCC)c2C(=O)OCC)c1C(=O)OCC`, which T/C (dose: 25.0 mg/kg/injection, schedule: Q01DX009 (ip), vehicle: saline with Tween-80) is on record?
**A.** 92 % of control

**Q.** What about the T/C [2] of the same compound?
**A.** 108 % of control

**Q.** And the T/C (dose: 50.0 mg/kg/injection, schedule: Q04DX003 (ip), vehicle: saline with Tween-80)?
**A.** 109 % of control

**Q.** What about the T/C (dose: 100.0 mg/kg/injection, schedule: Q04DX003 (ip), vehicle: saline with Tween-80) of the same compound?
**A.** 109 % of control

**Q.** What about the T/C (dose: 200.0 mg/kg/injection, schedule: Q04DX003 (ip), vehicle: saline with Tween-80) of the same compound?
**A.** 114 % of control

**Q.** What about the T/C (dose: 400.0 mg/kg/injection, schedule: Q04DX003 (ip), vehicle: saline with Tween-80) of the same compound?
**A.** 109 % of control

**Q.** Which T/C [1] does the source give for `Cc1ccccc1N=C(N)N=C(N)N` here?
**A.** 100 % of control

**Q.** What about the T/C (dose: 100.0 mg/kg/injection, schedule: Q01DX009 (ip), vehicle: saline) of the same compound?
**A.** 100 % of control

**Q.** `O=C(O)C1CCSS1` (stereo not drawn) was tested. Which T/C (dose: 0.19 mg/kg/injection, schedule: Q01DX009 (ip), vehicle: saline) did it give?
**A.** 100 % of control

**Q.** And the T/C (dose: 0.39 mg/kg/injection, schedule: Q01DX009 (ip), vehicle: saline)?
**A.** 91 % of control

**Q.** And the T/C (dose: 0.78 mg/kg/injection, schedule: Q01DX009 (ip), vehicle: saline)?
**A.** 90 % of control and 117 % of control

**Q.** And the T/C (dose: 1.56 mg/kg/injection, schedule: Q01DX009 (ip), vehicle: saline)?
**A.** 96 % of control and 99 % of control

**Q.** What about the T/C (dose: 3.12 mg/kg/injection, schedule: Q01DX009 (ip), vehicle: saline) of the same compound?
**A.** 94 % of control

**Q.** And the T/C (dose: 6.25 mg/kg/injection, schedule: Q01DX009 (ip), vehicle: saline)?
**A.** 94 % of control

**Q.** And the T/C (dose: 12.5 mg/kg/injection, schedule: Q01DX009 (ip), vehicle: saline)?
**A.** 102 % of control and 106 % of control and 108 % of control

**Q.** What about the T/C [1] of the same compound?
**A.** 87 % of control and 89 % of control

**Q.** What about the T/C (dose: 50.0 mg/kg/injection, schedule: Q04DX003 (ip), vehicle: saline) of the same compound?
**A.** 103 % of control

**Q.** What about the T/C (dose: 100.0 mg/kg/injection, schedule: Q04DX003 (ip), vehicle: saline) of the same compound?
**A.** 101 % of control

**Q.** Which results are given for `Nc1nc(N)c2cc(Sc3ccc4ccccc4c3)ccc2n1`?
**A.** T/C [2]: 113 % of control; T/C [3]: 123 % of control

**Q.** With `C[C@]12CC[C@@H]3c4ccc(O)cc4CC[C@H]3[C@@H]1CCC(=O)O2` as the compound, how does the T/C (dose: 100.0 mg/kg/injection, schedule: Q01DX009 (ip), vehicle: Klucel (hydroxypropylcellulose) (HPC)) read?
**A.** 91 % of control

**Q.** And the T/C [4]?
**A.** 104 % of control

**Q.** And the T/C (dose: 200.0 mg/kg/injection, schedule: Q01DX009 (ip), vehicle: Klucel (hydroxypropylcellulose) (HPC))?
**A.** 91 % of control

**Q.** What about the T/C [5] of the same compound?
**A.** 90 % of control

**Q.** And the T/C (dose: 400.0 mg/kg/injection, schedule: Q04DX003 (ip), vehicle: Klucel (hydroxypropylcellulose) (HPC))?
**A.** 100 % of control

**Q.** `CSc1nc(Cl)c(Br)c(Sc2nc(N)nc3nc[nH]c23)n1` was tested. Which T/C (dose: 132.0 mg/kg/injection, schedule: Q04DX003 (ip), vehicle: saline with Tween-80) did it give?
**A.** 120 % of control

**Q.** `COC(=O)/C(=N\NS(=O)(=O)c1ccc(C)cc1)c1ccccc1` was tested. Which T/C (dose: 25.0 mg/kg/injection, schedule: Q04DX003 (ip), vehicle: Klucel (hydroxypropylcellulose) (HPC)) did it give?
**A.** 98 % of control

**Q.** And the T/C (dose: 50.0 mg/kg/injection, schedule: Q04DX003 (ip), vehicle: Klucel (hydroxypropylcellulose) (HPC))?
**A.** 100 % of control

**Q.** And the T/C [4]?
**A.** 94 % of control

**Q.** And the T/C [5]?
**A.** 93 % of control

**Q.** `CC(=O)C/C(C)=N\NC(=S)SCc1ccccc1` was tested. Which T/C (dose: 75.0 mg/kg/injection, schedule: Q01DX009 (ip), vehicle: saline with Tween-80) did it give?
**A.** 90 % of control

**Q.** What about the T/C (dose: 150.0 mg/kg/injection, schedule: Q01DX009 (ip), vehicle: saline with Tween-80) of the same compound?
**A.** 97 % of control

**Q.** What about the T/C (dose: 300.0 mg/kg/injection, schedule: Q01DX009 (ip), vehicle: saline with Tween-80) of the same compound?
**A.** 92 % of control

**Q.** Which T/C (dose: 50.0 mg/kg/injection, schedule: Q04DX002 (ip), vehicle: saline with Tween-80) does the source give for `O=C(Nc1nncs1)c1cnccn1` here?
**A.** 98 % of control

**Q.** What about the T/C (dose: 100.0 mg/kg/injection, schedule: Q04DX002 (ip), vehicle: saline with Tween-80) of the same compound?
**A.** 97 % of control

**Q.** What about the T/C (dose: 200.0 mg/kg/injection, schedule: Q04DX002 (ip), vehicle: saline with Tween-80) of the same compound?
**A.** 104 % of control

**Q.** And the T/C (dose: 400.0 mg/kg/injection, schedule: Q04DX002 (ip), vehicle: saline with Tween-80)?
**A.** 168 % of control

Source: PubChem BioAssay AID328 (DTP/NCI, 2004)
